Assay results as given in ChEMBL document CHEMBL4311969, “Polygala tenuifolia-Acori tatarinowii herbal pair as an inspiration for substituted cinnamic α-asaronol esters: Design, synthesis, anticonvulsant activity, and inhibition of lactate dehydrogenase study” (Eur J Med Chem, 2019).
The source made the active and inactive calls. No cut-off for these calls is given here.

How the values were obtained:
[1] = Cmax in Sprague-Dawley rat at 20 mg/kg, po measured upto 480 mins by LC-MS/MS analysis; format: ADME, organism-based; design: dose 20 mg/kg, route oral; conditions: in vivo
[2] = Drug uptake in Sprague-Dawley rat kidney at 50 mg/kg, po; format: ADME, organism-based; conditions: in vivo
Mus musculus [3] = experiment: Anticonvulsant activity in Kunming mouse assessed as MES-induced hind limb extension at 100 mg/kg, ip administered 0. 5 to 4 hrs before MES stimulation relative to control; format: functional
[4] = target: T1, GABA-A receptor; alpha-1/beta-2/gamma-2 (Homo sapiens, UniProt P14867+P18507+P47870); experiment: Agonist activity at GABA alpha1beta2gamma2 receptor in human HEK293T at -50 mV holding potential by whole cell voltage clamp assay; format: protein-complex assay
T1 sequence (P14867 whole entry): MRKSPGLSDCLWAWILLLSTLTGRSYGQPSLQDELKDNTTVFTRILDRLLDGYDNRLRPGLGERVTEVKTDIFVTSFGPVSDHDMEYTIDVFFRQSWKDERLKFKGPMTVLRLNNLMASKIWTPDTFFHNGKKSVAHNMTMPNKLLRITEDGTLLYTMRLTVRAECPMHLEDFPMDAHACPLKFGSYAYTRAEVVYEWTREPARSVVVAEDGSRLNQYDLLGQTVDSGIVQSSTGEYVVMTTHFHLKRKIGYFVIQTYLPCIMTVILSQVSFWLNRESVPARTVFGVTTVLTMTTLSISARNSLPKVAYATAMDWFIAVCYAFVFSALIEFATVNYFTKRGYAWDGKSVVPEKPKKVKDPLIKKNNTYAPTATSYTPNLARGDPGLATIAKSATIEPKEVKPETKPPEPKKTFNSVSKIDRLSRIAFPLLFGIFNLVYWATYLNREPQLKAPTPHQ
T1 sequence (P47870 whole entry): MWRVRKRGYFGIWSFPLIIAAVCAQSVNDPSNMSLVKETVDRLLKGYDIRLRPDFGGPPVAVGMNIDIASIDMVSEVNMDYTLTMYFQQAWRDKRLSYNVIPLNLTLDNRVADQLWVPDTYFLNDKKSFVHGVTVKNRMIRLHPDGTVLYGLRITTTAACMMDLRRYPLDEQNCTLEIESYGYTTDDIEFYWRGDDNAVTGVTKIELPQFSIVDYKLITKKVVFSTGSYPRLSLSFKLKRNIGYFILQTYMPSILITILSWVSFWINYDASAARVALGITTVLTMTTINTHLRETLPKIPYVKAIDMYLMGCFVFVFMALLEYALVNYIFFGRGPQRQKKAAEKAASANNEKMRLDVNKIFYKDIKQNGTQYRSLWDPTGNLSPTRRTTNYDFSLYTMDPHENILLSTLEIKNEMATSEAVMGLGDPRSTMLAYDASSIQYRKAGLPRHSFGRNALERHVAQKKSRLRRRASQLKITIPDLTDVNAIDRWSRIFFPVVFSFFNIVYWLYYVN
T1 sequence (P18507 whole entry): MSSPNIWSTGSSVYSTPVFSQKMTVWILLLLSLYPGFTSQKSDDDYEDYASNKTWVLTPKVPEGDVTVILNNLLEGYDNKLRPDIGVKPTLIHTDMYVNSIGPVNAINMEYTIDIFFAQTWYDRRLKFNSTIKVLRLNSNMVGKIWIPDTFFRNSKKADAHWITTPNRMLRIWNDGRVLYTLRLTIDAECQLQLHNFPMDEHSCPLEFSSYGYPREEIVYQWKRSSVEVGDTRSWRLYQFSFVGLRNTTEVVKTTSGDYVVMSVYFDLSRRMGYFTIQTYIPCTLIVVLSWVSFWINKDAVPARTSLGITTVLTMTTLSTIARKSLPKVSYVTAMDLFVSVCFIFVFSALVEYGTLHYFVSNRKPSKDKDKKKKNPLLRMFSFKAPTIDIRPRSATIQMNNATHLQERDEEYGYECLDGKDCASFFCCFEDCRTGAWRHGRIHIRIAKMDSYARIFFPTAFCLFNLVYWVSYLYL

[5] = Tmax in Sprague-Dawley rat kidney at 50 mg/kg, po; format: ADME, organism-based
[6] = (§1) Protective index, ratio of TD50 for neurotoxicity against ip dosed Kunming mouse assessed as time remained in rod measured at 0.5 hrs by rotarod test to ED50 for […] activity in ip dosed Kunming mouse assessed as reduction in formalin-induced paw licking administered 0.5 hrs before formalin stimulation; format: toxicity, organism-based; conditions: in vivo, read-out: PI
[7] = as §1, with “Sc3-MP-induced seizure” for “formalin-induced paw licking”, “Sc3-MP” for “formalin”; format: toxicity, organism-based; conditions: in vivo, read-out: PI
[8] = Drug uptake in Sprague-Dawley rat brain at 50 mg/kg, po; format: ADME, organism-based; conditions: in vivo
[9] = Tmax in Sprague-Dawley rat at 50 mg/kg, po measured upto 480 mins by LC-MS/MS analysis; format: ADME, organism-based; conditions: in vivo
[10] = Drug uptake in Sprague-Dawley rat heart at 50 mg/kg, po; format: ADME, organism-based; conditions: in vivo
[11] = Drug uptake in Sprague-Dawley rat lungs at 50 mg/kg, po; format: ADME, organism-based, Lung; conditions: in vivo
[12] = Cmax in Sprague-Dawley rat at 50 mg/kg, po measured upto 480 mins by LC-MS/MS analysis; format: ADME, organism-based; design: dose 50 mg/kg, route oral; conditions: in vivo
[13] = Drug metabolism in Sprague-Dawley rat assessed as retention time by HPLC/MS analysis; format: ADME
[14] = AUC in Sprague-Dawley rat at 20 mg/kg, po measured upto 480 mins by LC-MS/MS analysis; format: ADME, organism-based; design: time < 8 hr, dose 20 mg/kg, route oral; conditions: in vivo
Homo sapiens = organism: Homo sapiens; experiment: Inhibition of human LDH5 at 0.5 mM using sodium pyruvate as substrate measured for 60 sec for every 5 mins by LC/MS-MS analysis
[15] = AUC in Sprague-Dawley rat at 20 mg/kg, iv measured upto 480 mins by LC-MS/MS analysis; format: ADME, organism-based; design: time < 8 hr, dose 20 mg/kg, route intravenous; conditions: in vivo
Mus musculus [16] = experiment: Anticonvulsant activity in Kunming mouse assessed as reduction in ScPTZ-induced seizure at 100 mg/kg, ip administered 0.25 to 2 hrs before ScPTZ stimulation relative to control; format: functional; design: scale not given: the % may be the effect or the level left
Mus musculus [17] = experiment: Anticonvulsant activity in Kunming mouse assessed as MES-induced hind limb extension at 100 mg/kg, ip administered 0. 5 to 2 hrs before MES stimulation; format: functional, organism-based
[18] = AUC in Sprague-Dawley rat at 50 mg/kg, po measured upto 480 mins by LC-MS/MS analysis; format: ADME, organism-based; design: time < 8 hr, dose 50 mg/kg, route oral; conditions: in vivo
[19] = AUC in Sprague-Dawley rat at 100 mg/kg, po measured upto 480 mins by LC-MS/MS analysis; format: ADME, organism-based; design: dose 100 mg/kg, time < 8 hr, route oral; conditions: in vivo
Mus musculus [20] = experiment: Anticonvulsant activity in Kunming mouse assessed as reduction in ScPTZ-induced clonic seizure at 300 mg/kg, ip administered 0.5 hrs before ScPTZ stimulation relative to control; format: functional; design: scale not given: the % may be the effect or the level left
[21] = Noncompetitive inhibition of human LDH1 at 0.5 mM using sodium pyruvate as substrate by UV-VIS spectrophotometry method based Lineweaver-Burk plot analysis
[22] = Noncompetitive inhibition of human LDH5 at 0.5 mM using sodium pyruvate as substrate by UV-VIS spectrophotometry method based Lineweaver-Burk plot analysis
Mus musculus [23] = experiment: Anticonvulsant activity in Kunming mouse assessed as MES-induced hind limb extension at 100 mg/kg, ip administered 3 hrs before MES stimulation; format: functional, organism-based
Mus musculus [24] = experiment: Potency index, ratio of ED50 of valproic acid to ED50 of compound anticonvulsant activity in ip dosed Kunming mouse assessed as MES-induced hind limb extension administered 0.5 hrs before MES stimulation; format: functional

SMILES	Cmax [1]	Activity (Mus musculus [3])	selectivity ratio at 0.5 h [6]	selectivity ratio at 0.5 h [7]	Tmax [9]	Cmax [12]	AUC at 8 h [14]	inhibition (Homo sapiens)	AUC at 8 h [15]	Activity (Mus musculus [16])	Activity (Mus musculus [17])	AUC at 8 h [18]	AUC at 8 h [19]	Activity (Mus musculus [20])	further results
COc1cc(OC)c(OC)cc1/C=C/COC(=O)/C=C/c1c(OC)cc(OC)c(OC)c1OC	980 ng/mL	25 - 100%	21.6	4.6	38.7 min	2040 ng/mL	1300 ng·h/mL	27%	3000 ng·h/mL	25%	Active	2610 ng·h/mL	5480 ng·h/mL	100%	Drug uptake [2]: Active; EC50 [4]: 46.3 µM; Tmax [5]: 60 min; Drug uptake [8]: Active; Drug uptake [10]: Active; Drug uptake [11]: Active; Retention_time [13]: 40.6 min
COc1cc(OC)c(OC)cc1/C=C/COC(=O)/C=C/c1cc(OC)c(OC)c(OC)c1OC	880 ng/mL	25 - 100%	23.7	> 5.3	35.6 min	1890 ng/mL	1210 ng·h/mL	15%	2940 ng·h/mL	25%	Active	2310 ng·h/mL	5110 ng·h/mL	100%	Ki [21]: 1.77 µM; Ki [22]: 4.84 µM; Activity (Mus musculus [23]): Active; Ratio ED50 (Mus musculus [24]): 23.1
